Laboratory results reported in the NIST ThermoML archive (doi:10.1016/j.jct.2009.06.003).
Numbers after ± are expanded uncertainties.

Key:
[1] = DTA
[2] = Molar enthalpy of transition or fusion; settings: DSC

Structure (SMILES) | Glass transition temperature [1] | Normal melting temperature ([1]; Crystal) | Molar enthalpy of transition or fusion ([2]; Crystal) | Normal melting temperature ([1]; Crystal 1) | Triple point temperature ([1]; Crystal 2) | Molar enthalpy of transition or fusion ([2]; Crystal 1) | Molar enthalpy of transition or fusion ([2]; Crystal 2)
CCCCCCn1cc[n+](C)c1.N#C[S-] [1-hexyl-3-methylimidazolium thiocyanate] | -83.2 ± 2 °C |  |  |  |  |  | 
CCCC[n+]1cccc(C)c1.Cc1ccc(S(=O)(=O)[O-])cc1 [1-butyl-3-methylpyridinium 4-methylbenzenesulfonate] | -53.0 ± 2 °C | 50.6 ± 0.5 °C | 0.366 ± 0.0406 kcal/mol |  |  |  | 
CC[S+](CC)CC.O=S(=O)([N-]S(=O)(=O)C(F)(F)F)C(F)(F)F [triethylsulfonium bis((trifluoromethyl)sulfonyl)imide] | -73.8 ± 2 °C |  |  | -10.3 ± 0.5 °C | 241.1 ± 2 K | 1.67 ± 0.0669 kcal/mol | 2.25 ± 0.0813 kcal/mol
CCCC[n+]1ccc(C)cc1.O=S(=O)([N-]S(=O)(=O)C(F)(F)F)C(F)(F)F | -77.2 ± 2 °C | 18.2 ± 0.5 °C | 5.24 ± 0.158 kcal/mol |  |  |  | 
CCn1cc[n+](C)c1.N#C[S-] [1-ethyl-3-methylimidazolium thiocyanate] | -97.5 ± 2 °C |  |  |  |  |  | 
Cc1cc[n+](C)cc1.Cc1ccc(S(=O)(=O)[O-])cc1 [1,4-dimethylpyridinium 4-methylbenzenesulfonate] |  | 151.7 ± 0.5 °C | 7.38 ± 0.21 kcal/mol |  |  |  | 
Cc1cc(C)[nH+]c(C)c1.Cc1ccc(S(=O)(=O)[O-])cc1 [2,4,6-trimethylpyridinium 4-methylbenzenesulfonate] | -7.8 ± 2 °C | 130.6 ± 0.5 °C | 5.47 ± 0.163 kcal/mol |  |  |  | 
CCCCCC[n+]1cccc(C)c1.Cc1ccc(S(=O)(=O)[O-])cc1 [1-hexyl-3-methylpyridinium 4-methylbenzenesulfonate] | -39 ± 2 °C | 56.2 ± 0.5 °C | 2.41 ± 0.0884 kcal/mol |  |  |  | 
